In US20220168384A1, “Anti-Bacterial Combination Therapy” (McMaster University, priority 2019, published 2022):

Test system: P. aeruginosa PAO1 and PA14 expressing Tsr
Assay: TS susceptibility of P. aeruginosa expressing tsr in trans from pUCP20
Type: cell-based, Pseudomonas aeruginosa
Details: VBMM
Experimental: A) Growth of PAO1; B) Growth of PA14. Each assay was performed at least 3 times in triplicate; **** p<0.0001.
The tsr gene from pIJ6902 was PCR-amplified using primers 5′[…]-3′ and 5′[…]-3′. Both the PCR product and pUCP20 vector were digested with SmaI and HindIII, gel-purified, and ligated at a 1:3 molar ratio using T4 DNA ligase. The ligated DNA was transformed into E. coli DH5a and transformants selected on LB agar containing 100 μg/mL ampicillin and 5-bromo-4-chloro-3-indolyl-β-D-galactopyranoside for blue-white selection. Plasmids from white colonies were purified using a GeneJet Plasmid Miniprep kit (Thermo Scientific) following the manufacturer's protocols. After verification by restriction digest and DNA sequencing, pUCP20 and pUCP20-tsr were each introduced into P. aeruginosa PAO1 and PA14 by electroporation. Transformants were selected on LB agar containing 200 μg/mL carbenicillin.

C=C(NC(=O)C(=C)NC(=O)c1csc(C2=N[C@@H]3c4csc(n4)[C@H]4NC(=O)c5csc(n5)[C@H]([C@](C)(O)[C@@H](C)O)NC(=O)[C@H]5CSC(=N5)/C(=C/C)NC(=O)[C@H]([C@@H](C)O)NC(=O)c5csc(n5)[C@]3(CC2)NC(=O)[C@H](C)NC(=O)C(=C)NC(=O)[C@H](C)NC(=O)[C@H]([C@@H](C)CC)N[C@@H]2C=Cc3c([C@H](C)O)cc(nc3[C@H]2O)C(=O)O[C@@H]4C)n1)C(N)=O [TS, thiostrepton]
resistance to TS compared to vector-only control (PA14 expressing tsr in trans (pUCP20-tsr)): significantly increased
TS concentration up to which the strain was resistant (PAO1 expressing tsr in trans (pUCP20-tsr)): 10 µM
